Source: patent publication US4530932A, “4-(1H-indol-3-yl)-α-methyl-piperidine-1-ethanol derivatives” (Roussel Uclaf, priority 1982, dated 1985)
Structures can show the parent of a compound that is named as a salt. Where two headings read alike, the source gives them in different places.

Tests used:
[1] = test system: mice; test: Acute toxicity (DL0, oral); assay type: in vivo, mouse; parameters: unit not given here
[2] = test system: Rat arteries (arterial contractions, entry of calcium ions into the cells of smooth muscles); test: In vitro anticalcic activity (inhibition of potassium-depolarized, calcium-induced contractions of isolated rat arteries); assay type: cell-based; conditions: dose inhibiting by 50% the contractions caused by potassium ions (100 mM), 37° C., read-out: CI50 (the source's name)
Description: Rat arteries decoupled in a spiral were attached to a tension collector and were maintained in tanks containing 2.5 ml of Krebs-sodium bicarbonate buffer (NaCl: 120.8 mM, KCl: 5.9 mM, MgCl2 : 1.2 mM, NaH2 PO4 : 1.2 mM, NaHCO3 : 15.5 mM, glucose: 12.6 mM), at 37° C. covered with a 95%-5% oxygen-carbon dioxide mixture. The preparations were depolarized with a buffered solution containing 100 mM of potassium ions (NaCl: 26.7 mM, KCl: 100 mM, MgCl2 : 1.2 mM, NaH2 PO4 : 1.2 mM, NaHCO3 : 15.5 mM, glucose 12.6 mM).
A volume of 25 μl of calcium chloride was added to the mixture in a manner to obtain a range of increasing concentrations of calcium ions from 0.1 to 3.0 mM and the contractions of the artery were measured to obtain a control. The operation with range of calcium ions was repeated every 15 minutes and the preparation was washed 4 times after each range. When a stable response was obtained, the operation with the range of calcium ions was effected in the presence of varying concentrations of test compounds until a stable response was obtained.
The arterial contractions depend on the entry of calcium ions into the cells of smooth muscles and are provoked by depolarization of smooth muscles by potassium ions and by action of noradrenaline freed by presynapthic level. By recommencing the operation with denerved arteries by the action of 6-hydroxy-dopamine, the specific action due to noradrenaline is suppressed.

[3] = biological target: T1, β1 adrenergic receptors (Rattus norvegicus, UniProt P18090); test: Affinity for β1 adrenergic receptors (3H dihydroalprenolol displacement, rat brain cortex); assay type: binding; conditions: relative to propranolol, 37° C., pH 7.7
T1 construct: 10 cortexes removed from the brains of male rats weighing an average of 150 g; from tissue; host or cells: cerebral cortex of male rats (membranes)
Description: The test was inspired by that of Mohler et al [Science, Vol. 198 (1977), p. 849-851] and 10 cortexes removed from the brains of male rats weighing an average of 150 g were homogenized in 90 ml of 0.32M of sucrose. After centrifuging the homogenized mixture at 1000 g for 20 minutes at 0° C., the surnageant was centrifuged at 30,000 g for 15 minutes at 0° to 4° C. The culot was suspended in 120 ml of buffer Tris HCl 50 mM with a pH of 7.7 and was centrifuged at 30,000 g for 15 minutes at 0° to 4° C. The resulting culot was suspended in 480 ml of buffer Krebs Tris HCl (50 mM-pH of 7.7) and 2 ml of the suspension in the presence of 3H dihydroalprenolol at a concentration of 10^-9 M alone and with increasing concentrations of the test compound or with non-radioactive propranolol at a concentration of 10^-5 M to determine the non-specific fixation was incubated at 37° C. for 10 minutes.
The incubated suspensions were filtered through Whatman GF/C and the filters were washed 3 times with 5 ml of buffer Krebs Tris HCl (pH-7.7) at 0° C. The radioactivity of the filters was measured by liquid scintillation and the affinity of the test compounds for β1 -adrenergic receptors was compared using propranolol as a standard as in Test D. The results are reported in Table VI.

[4] = test system: α1 adrenergic receptors; test: Affinity for α1 adrenergic receptors (3H prazosine displacement, rat brain); assay type: binding; conditions: relative to phentolamine (ARL=100×(CB/CX)), 25° C., pH 7.7
Description: After centrifugation at 30,000 g for 15 minutes at 0° to 4° C., the culot was suspended in 240 ml of buffer Tris HCl 50 mM (pH-7.7) and the suspension was centrifuged at 30,000 g for 20 minutes at 0° to 4° C. The new culot was suspended in 480 ml of buffer Krebs Tris HCl (pH of 7.7-50 mM) and 2 ml of the suspension in the presence of 3H prazosine at a concentration of […] alone and with increasing concentrations of the test compound or with non-radioactive phentolamine at a concentration of 10^-5 M to determine the non-specific fixation was incubated at 25° C. for 30 minutes.
The incubated suspensions were filtered through Whatman FG/C and the filtered were washed with 3 times with 5 ml of buffer Krebs Tris HCl-pH of 7.7 at 0° to 4° C. The radioactivity of the filters was measured by liquid scintillation and the affinity of the test compound for α1 adrenergic receptors was compared relative to phentolamine as the reference compound by the formula
CD=concentration of phentolamine inhibiting by 50% the specific fixation of 3H prazosine.
CX=concentration of test product inhibiting by 50% the specific fixation of 3H prazosine.

[5] = test system: cardiac rhythm troubles in guinea pigs; test: Antiarythmic action (K-strophanthine and adrenaline induced cardiac rhythm troubles); assay type: in vivo, guinea pig; conditions: Cavia porcellus, 1 h, oral 10 mg/kg, one hour before K-strophanthine and adrenaline perfusion, read-out: Percentage of protection (lengthening of the time of appearance of cardiac rhythm troubles as compared to controls)
Description: Male guinea pigs weighing between 450 and 500 g were tracheotomized while anesthesized by intraperitoneal administration of […] of urethane and were subjected to artifical respiration of 40 to 50 breaths of 5 ml per minute. Needles were subcutaneously implanted to register an electrocardiogram of the guinea pigs for the signal of D II derivation. The test products were orally administered and one hour later, the jugular vein of the guinea pigs were perfused with 0.5 ml per minute of a solution of 150 γ/ml of K-strophanthine and 0.5 ml per minute of a solution of 5 γ/ml of adrenaline and the number of times of the appearance of cardiac rhythm troubles was noted. The results are expressed in percentage of protection with an oral dose of 10 mg/kg of test product that is to say the percentage of lengthening of the time of appearance of cardiac rhythm troubles as compared to the controls.

[6] = test system: carotidien arterial pressure in rats; test: Hypotensive activity (carotidien arterial pressure in anesthesized rats); assay type: in vivo, rat (Wistar); conditions: rat, intravenous
Description: The hypotensive activity was studied on male rats of the Wistar strain weighing about 300 g and anesthesized with 50 mg/kg of nembutal intraveinously. The test products were administered intraveinously by the jugular vein and the carotidien arterial pressure was measured before and after administration of the test compounds. The variations expressed in percentage of arterial pressure after administration with respect to the initial pressure is reported in Table IV.

[7] = 1 min, 1 minute, read-out: % Variation of arterial pressure after administration, 1 minute
[8] = 5 min, 5 minutes, read-out: % Variation of arterial pressure after administration, 5 minutes
[9] = 10 min, 10 minutes, read-out: % Variation of arterial pressure after administration, 10 minutes
[10] = 0.5 h, 30 minutes, read-out: % Variation of arterial pressure after administration, 30 minutes

T1 sequence (P18090 whole entry): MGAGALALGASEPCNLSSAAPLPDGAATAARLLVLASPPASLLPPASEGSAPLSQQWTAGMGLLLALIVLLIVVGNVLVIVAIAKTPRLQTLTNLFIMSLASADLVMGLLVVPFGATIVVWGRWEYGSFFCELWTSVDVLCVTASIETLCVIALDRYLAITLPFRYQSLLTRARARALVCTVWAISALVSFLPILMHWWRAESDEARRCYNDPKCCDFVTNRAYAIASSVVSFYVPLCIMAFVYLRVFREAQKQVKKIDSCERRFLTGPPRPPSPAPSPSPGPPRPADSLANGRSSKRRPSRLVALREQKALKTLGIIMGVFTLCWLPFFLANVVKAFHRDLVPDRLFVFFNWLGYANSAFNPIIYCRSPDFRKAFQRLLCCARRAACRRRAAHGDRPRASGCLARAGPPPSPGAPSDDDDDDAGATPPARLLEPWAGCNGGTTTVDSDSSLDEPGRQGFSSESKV

In the case of `OC(COc1cccc2ccccc12)CN1CCC(c2c[nH]c3ccccc23)CC1` (stereo not drawn) [Example 2, 4-(1H-indol-3-yl)-α-[1-naphthyloxymethyl]-piperidine-1-ethanol], the “DL0 (maximum dose which did not cause any deaths after 8 days)” value [1] is reported as > 1000, the IC50 [2] is reported as 3.5 µM and the “ARL in % (relative affinity for β1 adrenergic receptors)” value [3] is reported as 0.9%.

`O=[N+]([O-])c1ccc(OCC(O)CN2CCC(c3c[nH]c4ccccc34)CC2)cc1` (stereo not drawn) [Example 5, 4-(1H--indol-3-yl)-α-[4-nitrophenoxymethyl]-piperidine-1-ethanol hydrochloride] was tested, and the “DL0 (maximum dose which did not cause any deaths after 8 days)” value [1] was > 200, the “% Arl (relative affinity for α1 adrenergic receptors)” value [4] was 77% and the change in vivo at 10 mg/kg [5] was 82%. It also gave an IC50 [2] of 4.5 µM.

For `COc1ccc(OCC(O)CN2CCC(c3c[nH]c4ccccc34)CC2)cc1` (stereo not drawn) [Example 8, 4-(1H--indol-3-yl)-α-[4-methoxyphenoxymethyl]-piperidine-1-ethanol hydrochloride], the “DL0 (maximum dose which did not cause any deaths after 8 days)” value [1] was > 200, the change in vivo at 1 mg/kg [6, 7] was -10% and the change in vivo at 1 mg/kg [6, 8] was -13%. The change in vivo at 1 mg/kg [6, 9] was 0%, the change in vivo at 1 mg/kg [6, 10] was -13% and the “% Arl (relative affinity for α1 adrenergic receptors)” value [4] was 222%. The change in vivo at 10 mg/kg [5] was 57% and the IC50 [2] was 4.2 µM.

In the case of `Cc1ccccc1OCC(O)CN1CCC(c2c[nH]c3ccccc23)CC1` (stereo not drawn) [Example 9, 4-(1H--indol-3-yl)-α-[2-methylphenoxymethyl]-piperidine-1-ethanol hydrochloride], the “DL0 (maximum dose which did not cause any deaths after 8 days)” value [1] is reported as > 100, the change in vivo at 1 mg/kg [6, 7] is reported as -21% and the change in vivo at 1 mg/kg [6, 8] is reported as -9%. The change in vivo at 1 mg/kg [6, 9] was -25%, the change in vivo at 1 mg/kg [6, 10] was -20% and the “% Arl (relative affinity for α1 adrenergic receptors)” value [4] was 92%. For the same compound, the change in vivo at 10 mg/kg [5] was 48%, the IC50 [2] was 3.8 µM and the “ARL in % (relative affinity for β1 adrenergic receptors)” value [3] was 2.55%.

In the case of `OC(COc1ccccc1Cl)CN1CCC(c2c[nH]c3ccccc23)CC1` (stereo not drawn) [Example 10, 4-(1H--indol-3-yl)-α-[2-chlorophenoxymethyl]-piperidine-1-ethanol hydrochloride], the “DL0 (maximum dose which did not cause any deaths after 8 days)” value [1] is reported as > 100, the change in vivo at 1 mg/kg [6, 7] is reported as -21% and the change in vivo at 1 mg/kg [6, 8] is reported as -20%. For the same compound, the change in vivo at 1 mg/kg [6, 9] was -12%, the change in vivo at 1 mg/kg [6, 10] was -20% and the change in vivo at 10 mg/kg [5] was 59%. The IC50 [2] was 2 µM and the “ARL in % (relative affinity for β1 adrenergic receptors)” value [3] was 1.95%.

With `O=[N+]([O-])c1ccccc1OCC(O)CN1CCC(c2c[nH]c3ccccc23)CC1` (stereo not drawn) [Example 11, 4-(1H--indol-3-yl)-α-[2-nitrophenoxymethyl]-piperidine-1-ethanol hydrochloride] the “DL0 (maximum dose which did not cause any deaths after 8 days)” value [1] was 100, the “% Arl (relative affinity for α1 adrenergic receptors)” value [4] was 77% and the change in vivo at 10 mg/kg [5] was 56%. For the same compound, the IC50 [2] was 4.2 µM and the “ARL in % (relative affinity for β1 adrenergic receptors)” value [3] was 1.2%.

In the case of `OC(COc1ccccc1F)CN1CCC(c2c[nH]c3ccccc23)CC1` (stereo not drawn) [Example 12, 4-(1H--indol-3-yl)-α-[2-fluorophenoxymethyl]-piperidine-1-ethanol hydrochloride], the “DL0 (maximum dose which did not cause any deaths after 8 days)” value [1] is reported as 80, the change in vivo at 1 mg/kg [6, 7] is reported as -27% and the change in vivo at 1 mg/kg [6, 8] is reported as -14%. For the same compound, the change in vivo at 1 mg/kg [6, 9] was -27%, the change in vivo at 1 mg/kg [6, 10] was -24% and the “% Arl (relative affinity for α1 adrenergic receptors)” value [4] was 233%. The change in vivo at 10 mg/kg [5] was 90%, the IC50 [2] was 3.2 µM and the “ARL in % (relative affinity for β1 adrenergic receptors)” value [3] was 1.2%.

For `Oc1ccccc1OCC(O)CN1CCC(c2c[nH]c3ccccc23)CC1` (stereo not drawn) [Example 13, 4-(1H--indol-3-yl)-α-[2-hydroxy-phenoxymethyl]-piperidine-1-ethanol hydrochloride], the “DL0 (maximum dose which did not cause any deaths after 8 days)” value [1] was > 100, the “% Arl (relative affinity for α1 adrenergic receptors)” value [4] was 293% and the change in vivo at 10 mg/kg [5] was 112%. The IC50 [2] was 4.5 µM and the “ARL in % (relative affinity for β1 adrenergic receptors)” value [3] was 1.1%.

`CC(=O)Nc1ccccc1OCC(O)CN1CCC(c2c[nH]c3ccccc23)CC1` (stereo not drawn) [Example 20, 4-(1H--indol-3-yl)-α-[2-acetamidophenoxymethyl]-piperidine-1-ethanol hydrochloride] was tested, and the “% Arl (relative affinity for α1 adrenergic receptors)” value [4] was 311%.

For `Cc1ccc(OCC(O)CN2CCC(c3c[nH]c4ccccc34)CC2)cc1` (stereo not drawn) [Example 21, 4-(1H--indol-3-yl)-α-[4-methylphenoxymethyl]-piperidine-1-ethanol hydrochloride], the “DL0 (maximum dose which did not cause any deaths after 8 days)” value [1] was > 100, the “% Arl (relative affinity for α1 adrenergic receptors)” value [4] was 93% and the change in vivo at 10 mg/kg [5] was 60%. For the same compound, the IC50 [2] was 1.8 µM.

For `OC(COc1cccc(Cl)c1)CN1CCC(c2c[nH]c3ccccc23)CC1` (stereo not drawn) [Example 22, 4-(1H--indol-3-yl)-α-[3-chloro-phenoxymethyl]-piperidine-1-ethanol hydrochloride], the “DL0 (maximum dose which did not cause any deaths after 8 days)” value [1] was 80, the “% Arl (relative affinity for α1 adrenergic receptors)” value [4] was 70% and the IC50 [2] was 1.8 µM.

For `OC(COc1ccc(C(F)(F)F)cc1)CN1CCC(c2c[nH]c3ccccc23)CC1` (stereo not drawn) [Example 25, 4-(1H--indol-3-yl)-α-[4-trifluoramethylphenoxymethyl]-piperidine-1-ethanol hydrochloride], the “DL0 (maximum dose which did not cause any deaths after 8 days)” value [1] was 100, the change in vivo at 1 mg/kg [6, 7] was -5% and the change in vivo at 1 mg/kg [6, 8] was -14%. For the same compound, the change in vivo at 1 mg/kg [6, 9] was -6%, the change in vivo at 1 mg/kg [6, 10] was -14% and the change in vivo at 10 mg/kg [5] was 35%. For the same compound, the IC50 [2] was 1.5 µM.

With `C=CCOc1cccc(OCC(O)CN2CCC(c3c[nH]c4ccccc34)CC2)c1` (stereo not drawn) [Example 28, 4-(1H--indol-3-yl)-α-[3-(prop-2-enyloxy)-phenoxymethyl]-piperidine-1-ethanol hydrochloride] the “DL0 (maximum dose which did not cause any deaths after 8 days)” value [1] was > 100, the change in vivo at 1 mg/kg [6, 7] was -5% and the change in vivo at 1 mg/kg [6, 8] was -10%. It also gave a change in vivo at 1 mg/kg [6, 9] of -6%, a change in vivo at 1 mg/kg [6, 10] of -9% and a change in vivo at 10 mg/kg [5] of 103%. The IC50 [2] was 2.4 µM.
